Tests used:
granulosa cells = assay: Steroid hormone production by granulosa cells (data not shown); type: cell-based, bovine
From the text: Stimulation of target cell hormone production was not required for cell lysis.

[1] = tested on: sexually mature, Sprague-Dawley female rats; assay: Sexually mature Sprague-Dawley female rats, single intravenous treatment, necropsy 48 or 96 hours after treatment, H&E and PAS stain (Examples 15-22); type: in vivo, rat; details: 334 μg in 200 μL saline (1.35 mM) i.v.; sacrificed 48 or 96 hours after injection
Description: Eight sexually mature, Sprague-Dawley female rats were randomly assigned to one of eight treatments. Each group of rats received a single treatment intravenously, as described below. Rats were sacrificed and necropsied either 48 or 96 hours after treatment. The ovaries, uterus, pancreas, liver, spleen, lungs, heart, thyroid, and adrenal glands were fixed in 10% buffered formalin; sectioned; and stained with H&E (hematoxylin and eosin) stain; except that the pituitary glands were stained with PAS (periodic acid-Schiff) stain with no counter-stain. The treatments were selected so that each animal received an equimolar amount of the compound with which it was treated.

GnRH receptor [2] = target: T1, GnRH receptor (Homo sapiens, UniProt P30968); details: reported; see U.S. Pat. No. 5,488,036; cited from earlier work
T1 sequence (P30968 1-328): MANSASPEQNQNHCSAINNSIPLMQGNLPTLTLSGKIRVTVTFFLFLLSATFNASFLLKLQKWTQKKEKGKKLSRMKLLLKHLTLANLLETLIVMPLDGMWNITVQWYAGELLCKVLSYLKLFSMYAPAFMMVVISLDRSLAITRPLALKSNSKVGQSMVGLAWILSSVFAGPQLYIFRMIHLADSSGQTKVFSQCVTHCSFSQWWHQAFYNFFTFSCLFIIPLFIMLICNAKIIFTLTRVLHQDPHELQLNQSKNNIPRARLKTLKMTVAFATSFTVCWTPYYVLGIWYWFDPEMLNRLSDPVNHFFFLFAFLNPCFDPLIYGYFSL

GnRH receptor [3] = target: T2, GnRH receptor (Rattus norvegicus, UniProt P30969); assay: Displacement of radiolabelled monoiodinated-GnRH from rat pituitary membranes (Example 24); type: binding
T2 construct: specifically displaced radiolabelled monoiodinated-GnRH from rat pituitary membranes; from tissue; host or cells: rat pituitary membranes
T2 sequence (P30969 1-327): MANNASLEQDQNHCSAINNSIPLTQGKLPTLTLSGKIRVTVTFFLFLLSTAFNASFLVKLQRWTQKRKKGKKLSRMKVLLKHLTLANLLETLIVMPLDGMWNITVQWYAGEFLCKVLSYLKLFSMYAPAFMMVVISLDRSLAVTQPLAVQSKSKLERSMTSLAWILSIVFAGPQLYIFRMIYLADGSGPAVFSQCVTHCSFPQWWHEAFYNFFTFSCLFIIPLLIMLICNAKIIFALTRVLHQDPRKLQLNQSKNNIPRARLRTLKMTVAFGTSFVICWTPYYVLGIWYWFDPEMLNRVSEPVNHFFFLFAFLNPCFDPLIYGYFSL
From the text: We also synthesized D-Lys^6GnRH (SEQ. ID NO. 13), so that hecate could be conjugated to the D-Lys^6, a position that could minimize interference with binding of the GnRH domain to the GnRH receptor. These synthetic peptides specifically displaced radiolabelled monoiodinated-GnRH from rat pituitary membranes.

[4] = tested on: sexually mature, mixed breed, female rats; assay: Sexually mature female rats, double intravenous treatment, necropsy two weeks after treatment (Examples 9-14); type: in vivo, rat; details: Treatment 12: hecate 337 μg i.v., repeated after 24 hours; two weeks
From the text: Eighteen sexually mature, mixed breed, female rats were randomly assigned to one of six groups containing three rats each. Each group of rats received a double treatment intravenously, as described below. Two weeks after the treatment, the rats were sacrificed and necropsied. The reproductive and endocrine organs were sectioned, weighed, and examined histologically.

[5] = tested on: bovine small luteal cells; assay: In vitro lysis of bovine small luteal cells, Trypan Blue exclusion and release of lactic dehydrogenase (Examples 25-32); type: cell-based; details: 22 hr. incubation; for killing of small luteal cells: Trypan Blue exclusion
Description: We studied in vitro lysis of bovine luteal cells with GnRH-hecate conjugate and with hecate-bLH conjugate (SEQ. ID NO. 12). (The bLH component of the conjugate is a 15-mer fragment of the beta chain of luteinizing hormone, SEQ. ID NO. 11). Small luteal cells were collected from cattle corpora lutea post-slaughter.
Small luteal cells in culture were incubated with one of the following treatments for 22 hours, and were then examined for viability using Trypan Blue exclusion and release of lactic dehydrogenase.

bovine granulosa cells = assay: In vitro lysis of bovine granulosa cells (Examples 33-34); type: cell-based; details: hecate alone; compared with small luteal cells
From the text: We also studied in vitro lysis of bovine granulosa cells with GnRH-hecate conjugate and with hecate-bLH conjugate. Granulosa cells were isolated from bovine pre-ovulatory follicles. (Granulosa cells are hormonally active cells with numerous LH receptors.) Our experiments with granulosa cells were otherwise generally similar to those described above for Examples 25-32.

[6] = tested on: pituitary basophilic (gonadotropic) cells; assay: Adult female rat pituitary gland sections in tissue culture, histology ten hours after treatment (Examples 1-6); type: cell-based; details: 50 μM hecate in the medium; ten hours
Description: The pituitary gland of an adult female rat was harvested and divided into six sections of approximately equal size. One section was placed in each of six wells containing tissue culture medium at 37° C. A different treatment was applied to each well, as described below. Ten hours after treatment, the tissue from each well was fixed, and the histology of each was examined microscopically.

[7] = tested on: cells of the flat oyster Ostrea edulis; details: at the doses that reduced parasite viability; Morvan et al. 1994; cited from earlier work
Bonamia ostreae = details: in vitro; Morvan et al. 1994; cited from earlier work

## 15-mer fragment of the bLH subunit: 15-mer fragment of the beta chain of luteinizing hormone, SEQ. ID NO. 11 (SYAVALSCQCALCRR)
Granulosa cells
  production of steroid hormones (stimulus-coupled response): did not initiate the production of steroid hormones

## CC(C)C[C@H](NC(=O)CNC(=O)[C@H](Cc1ccc(O)cc1)NC(=O)[C@H](CO)NC(=O)[C@H](Cc1c[nH]c2ccccc12)NC(=O)[C@H](Cc1cnc[nH]1)NC(=O)[C@@H]1CCC(=O)N1)C(=O)N[C@@H](CCCNC(=N)N)C(=O)N1CCC[C@H]1C(=O)NCC(N)=O [GnRH, gonadotropin-releasing hormone, reference compound]
[1]
  gross lesions in the organs: No gross lesions

## CCNC(=O)[C@@H]1CCCN1C(=O)[C@H](CCCNC(=N)N)NC(=O)[C@H](CC(C)C)NC(=O)[C@@H](COC(C)(C)C)NC(=O)[C@H](Cc1ccc(O)cc1)NC(=O)[C@H](CO)NC(=O)[C@H](Cc1c[nH]c2ccccc12)NC(=O)[C@H](Cc1cnc[nH]1)NC(=O)[C@@H]1CCC(=O)N1 [buserelin]
GnRH receptor [2]
  binding affinity to the GnRH receptor compared with GnRH: greater binding affinity to the GnRH receptor than does GnRH itself

## CC(C)C[C@H](NC(=O)[C@@H](COC(C)(C)C)NC(=O)[C@H](Cc1ccc(O)cc1)NC(=O)[C@H](CO)NC(=O)[C@H](Cc1c[nH]c2ccccc12)NC(=O)[C@H](Cc1cnc[nH]1)NC(=O)[C@@H]1CCC(=O)N1)C(=O)N[C@@H](CCCNC(=N)N)C(=O)N1CCC[C@H]1C(=O)NNC(N)=O [goserelin]
GnRH receptor [2]
  binding affinity to the GnRH receptor compared with GnRH: greater binding affinity to the GnRH receptor than does GnRH itself

## CCNC(=O)[C@@H]1CCCN1C(=O)[C@H](CCCNC(=N)N)NC(=O)[C@H](CC(C)C)NC(=O)[C@@H](CC(C)C)NC(=O)[C@H](Cc1ccc(O)cc1)NC(=O)[C@H](CO)NC(=O)[C@H](Cc1c[nH]c2ccccc12)NC(=O)[C@H](Cc1c[nH]cn1)NC(=O)[C@@H]1CCC(=O)N1 [leuprolide]
GnRH receptor [2]
  binding affinity to the GnRH receptor compared with GnRH: greater binding affinity to the GnRH receptor than does GnRH itself

## D-Lys^6GnRH-hecate: hecate conjugated to the D-Lys^6 of D-Lys^6GnRH
GnRH receptor [3]; as measured by cpm of radioactivity
  displacement of radiolabelled monoiodinated-GnRH, compared with native mammalian GnRH: comparable to (and actually slightly greater than) displacement by native mammalian GnRH

## D-Lys^6GnRH: GnRH analog with D-Lys at position 6, SEQ. ID NO. 13
GnRH receptor [3]; molar basis over a 1000-fold concentration range (n=6), native GnRH = 100%
  specific displacement of the radiolabelled peptide relative to equimolar concentrations of GnRH: 187%±8%

## hecate: amphipathic lytic peptide, synthetic peptide analog of melittin, SEQ. ID NO. 2 (FALALKALKKALKKLKKALKKAL) [reference compound]
[4]
  ovarian function: normal ovarian function
[5]; 1 μM
  cell death of small luteal cells: did not differ significantly from negative control (media) or from bLH alone
[5]; 5 μM
  killing of small luteal cells: approximately 50%
[5]; 10 μM
  killing of small luteal cells: Significant killing
Bovine granulosa cells
  susceptibility of granulosa cells to killing: much more susceptible to killing by hecate alone than were the small luteal cells
[6]
  histology of pituitary tissue after treatment: appeared normal

## magainin 1: antimicrobial peptide magainin 1 (GIGKFLHSAGKFGKAFVGEIMKS; Magainin-1; UniProt P11006 37-59, looked up)
[7]
  effect on cells of the flat oyster Ostrea edulis: did not affect
Bonamia ostreae
  viability of the parasite Bonamia ostreae: selectively reduce the viability
